According to patent publication US8629276B2, “Inhibitors of human immunodeficiency virus replication” (priority 2012, dated 2014):

Tested on: recombinant NL-Rluc virus
Experiment: Inhibition of HIV replication (NL-RLuc virus, luciferase readout in MT-2 cells)
Type: cell-based
Conditions: Human immunodeficiency virus 1, MT2, 120 h

Q: `Cc1nc2c(c(-c3cc(F)c4c(c3C)CCCO4)c1[C@H](OC(C)(C)C)C(=O)O)CN(CCCc1ccccc1)CC2` (atropisomer, axis not shown) [Example 42, (2S)-2-(tert-Butoxy)-2-((R)-4-(8-fluoro-5-methylchroman-6-yl)-2-methyl-6-(3-phenylpropyl)-5,6,7,8-tetrahydro-1,6-naphthyridin-3-yl)acetic acid] was tested. Which EC50 did it give?
A: 7 nM

Q: Which EC50 does the source give for `Cc1nc2c(c(-c3cc(F)c4c(c3C)CCCO4)c1[C@H](OC(C)(C)C)C(=O)O)CN(CCCc1ccc(Cl)cc1)CC2` (atropisomer, axis not shown) [Example 44, (2S)-2-(tert-Butoxy)-2-(6-(3-(4-chlorophenyl)propyl)-(R)-4-(8-fluoro-5-methylchroman-6-yl)-2-methyl-5,6,7,8-tetrahydro-1,6-naphthyridin-3-yl)acetic acid] here?
A: 3 nM

Q: `Cc1nc2c(c(-c3cc(F)c4c(c3C)CCCO4)c1[C@H](OC(C)(C)C)C(=O)O)CN(CCCc1ccc(F)cc1)CC2` (atropisomer, axis not shown) [Example 45, (S)-2-(tert-Butoxy)-2-((R)-4-(8-fluoro-5-methylchroman-6-yl)-6-(3-(4-fluorophenyl)propyl)-2-methyl-5,6,7,8-tetrahydro-1,6-naphthyridin-3-yl)acetic acid] was tested. Which EC50 did it give?
A: 4 nM

Q: For `Cc1cccc(CCCN2CCc3nc(C)c([C@H](OC(C)(C)C)C(=O)O)c(-c4cc(F)c5c(c4C)CCCO5)c3C2)c1` (atropisomer, axis not shown) [Example 47, (2S)-2-(tert-Butoxy)-2-((R)-4-(8-fluoro-5-methylchroman-6-yl)-2-methyl-6-(3-(m-tolyl)propyl)-5,6,7,8-tetrahydro-1,6-naphthyridin-3-yl)acetic acid], which EC50 is on record?
A: 2 nM

Q: `Cc1ccccc1CCCN1CCc2nc(C)c([C@H](OC(C)(C)C)C(=O)O)c(-c3cc(F)c4c(c3C)CCCO4)c2C1` (atropisomer, axis not shown) [Example 48, (2S)-2-(tert-Butoxy)-2-((R)-4-(8-fluoro-5-methylchroman-6-yl)-2-methyl-6-(3-(o-tolyl)propyl)-5,6,7,8-tetrahydro-1,6-naphthyridin-3-yl)acetic acid] was tested. Which EC50 did it give?
A: 2 nM

Q: `Cc1nc2c(c(-c3cc(F)c4c(c3C)CCCO4)c1[C@H](OC(C)(C)C)C(=O)O)CN(CCCc1cccc(F)c1)CC2` (atropisomer, axis not shown) [Example 49, (S)-2-(tert-Butoxy)-2-((R)-4-(8-fluoro-5-methylchroman-6-yl)-6-(3-(3-fluorophenyl)propyl)-2-methyl-5,6,7,8-tetrahydro-1,6-naphthyridin-3-yl)acetic acid] was tested. Which EC50 did it give?
A: 4 nM

Q: With `Cc1ccc(CCCN2CCc3nc(C)c([C@H](OC(C)(C)C)C(=O)O)c(-c4cc(F)c5c(c4C)CCCO5)c3C2)cc1F` (atropisomer, axis not shown) [Example 51] as the compound, how does the EC50 read?
A: 1 nM

Q: `Cc1cc(CCCN2CCc3nc(C)c([C@H](OC(C)(C)C)C(=O)O)c(-c4cc(F)c5c(c4C)CCCO5)c3C2)ccc1F` (atropisomer, axis not shown) [Example 52, (2S)-2-(tert-Butoxy)-2-(6-(3-(4-fluoro-3-methylphenyl)propyl)-(R)-4-(8-fluoro-5-methylchroman-6-yl)-2-methyl-5,6,7,8-tetrahydro-1,6-naphthyridin-3-yl)acetic acid] was tested. Which EC50 did it give?
A: 2 nM

Q: How did the EC50 turn out when `Cc1nc2c(c(-c3cc(F)c4c(c3C)CCCO4)c1[C@H](OC(C)(C)C)C(=O)O)CN(CCCc1cccc(C(F)(F)F)c1)CC2` (atropisomer, axis not shown) [Example 53] was run?
A: 2 nM

Q: How did the EC50 turn out when `Cc1nc2c(c(-c3cc(F)c4c(c3C)CCCO4)c1[C@H](OC(C)(C)C)C(=O)O)CN(CCCc1ccccc1F)CC2` (atropisomer, axis not shown) [Example 55, (2S)-2-(tert-Butoxy)-2-((R)-4-(8-fluoro-5-methylchroman-6-yl)-6-(3-(2-fluorophenyl)propyl)-2-methyl-5,6,7,8-tetrahydro-1,6-naphthyridin-3-yl)acetic acid] was run?
A: 1 nM

Q: How did the EC50 turn out when `Cc1ccc(S(=O)(=O)N[C@@H](Cc2ccccc2)C(=O)N2Cc3c(nc(C(C)C)c(C(OC(C)(C)C)C(=O)O)c3-c3ccc(F)cc3)C(C)(C)C2)cc1` (stereo in doubt) [Example 10, 2-tert-Butoxy-2-(4-(4-fluorophenyl)-2-isopropyl-8,8-dimethyl-6-(2-(4-methylphenylsulfonamido)-3-phenylpropanoyl)-5,6,7,8-tetrahydro-1,6-naphthyridin-3-yl)acetic acid] was run?
A: 777 nM

Q: Which EC50 does the source give for `Cc1ccc(-c2c3c(nc(C)c2C(OC(C)(C)C)C(=O)O)CCN(C(=O)[C@H](Cc2ccccc2)NS(=O)(=O)c2ccc(C)cc2)C3)cc1` (stereo in doubt) [Example 32, 2-(tert-Butoxy)-2-(2-methyl-6-(2-(4-methylphenylsulfonamido)-3-phenylpropanoyl)-4-(p-tolyl)-5,6,7,8-tetrahydro-1,6-naphthyridin-3-yl)acetic acid] here?
A: 2300 nM

Q: `CC(=O)N1Cc2c(nc(C(C)C)c(C(OC(C)(C)C)C(=O)O)c2-c2ccc(F)cc2)C(C)(C)C1` (stereo not shown) [Example 2, 2-(6-Acetyl-4-(4-fluorophenyl)-2-isopropyl-8,8-dimethyl-5,6,7,8-tetrahydro-1,6-naphthyridin-3-yl)-2-tert-butoxyacetic acid] was tested. Which EC50 did it give?
A: 10000 nM

Q: Which EC50 does the source give for `CC(C)c1nc2c(c(-c3ccc(F)cc3)c1C(OC(C)(C)C)C(=O)O)CN(C(=O)c1ccccc1)CC2(C)C` (stereo not shown) [Example 3, 2-(6-Benzoyl-4-(4-fluorophenyl)-2-isopropyl-8,8-dimethyl-5,6,7,8-tetrahydro-1,6-naphthyridin-3-yl)-2-tert-butoxyacetic acid] here?
A: 6790 nM

Q: Which EC50 does the source give for `CC(C)c1nc2c(c(-c3ccc(F)cc3)c1C(OC(C)(C)C)C(=O)O)CN(C(=O)c1ccc(F)cc1)CC2(C)C` (stereo not shown) [Example 4, 2-tert-Butoxy-2-(6-(4-fluorobenzoyl)-4-(4-fluorophenyl)-2-isopropyl-8,8-dimethyl-5,6,7,8-tetrahydro-1,6-naphthyridin-3-yl)acetic acid] here?
A: 3160 nM

Q: `CC(C)c1nc2c(c(-c3ccc(F)cc3)c1C(OC(C)(C)C)C(=O)O)CN(C(=O)Cc1ccc(OCc3ccccc3)cc1)CC2(C)C` (stereo not shown) [Example 5, 2-(6-(2-(4-(Benzyloxy)phenyl)acetyl)-4-(4-fluorophenyl)-2-isopropyl-8,8-dimethyl-5,6,7,8-tetrahydro-1,6-naphthyridin-3-yl)-2-tert-butoxyacetic acid] was tested. Which EC50 did it give?
A: 5130 nM

Q: How did the EC50 turn out when `CC(C)c1nc2c(c(-c3ccc(F)cc3)c1C(OC(C)(C)C)C(=O)O)CN(C(=O)Cc1ccc(F)cc1)CC2(C)C` (stereo not shown) [Example 6, 2-tert-Butoxy-2-(4-(4-fluorophenyl)-6-(2-(4-fluorophenyl)acetyl)-2-isopropyl-8,8-dimethyl-5,6,7,8-tetrahydro-1,6-naphthyridin-3-yl)acetic acid] was run?
A: 185 nM

Q: For `CC(C)c1nc2c(c(-c3ccc(F)cc3)c1C(OC(C)(C)C)C(=O)O)CN(C(=O)Cc1ccccc1)CC2(C)C` (stereo not shown) [Example 7, 2-tert-Butoxy-2-(4-(4-fluorophenyl)-2-isopropyl-8,8-dimethyl-6-(2-phenylacetyl)-5,6,7,8-tetrahydro-1,6-naphthyridin-3-yl)acetic acid], which EC50 is on record?
A: 7540 nM

Q: With `CC(C)c1nc2c(c(-c3ccc(F)cc3)c1C(OC(C)(C)C)C(=O)O)CN(C(=O)[C@@H]1C[C@H]1c1ccccc1)CC2(C)C` (stereo partly drawn) [Example 8, 2-tert-Butoxy-2-(4-(4-fluorophenyl)-2-isopropyl-8,8-dimethyl-6-((1R,2R)-2-phenylcyclopropanecarbonyl)-5,6,7,8-tetrahydro-1,6-naphthyridin-3-yl)acetic acid] as the compound, how does the EC50 read?
A: 6720 nM
